Experimental data taken from patent US9580470B2, “High-purity cyclopeptide crystal as well as preparation method and use thereof” (SHANGHAI TECHWELL BIOPHARMACEUTICAL CO., LTD., priority 2012, dated 2017).

Experiment: Purity and stability test (content of impurities on storage)
Assay type: physicochemical
Conditions: for Content of impurities in the initial sample: before storage; for 0-8° C., content of impurities in the sample at 7 day: sealed containers at 0-8° C. for 7 days
Method: In this example, the purity and stability of the samples obtained in Comparative Examples and Examples were compared. The specific method is described as follows:
And then the content of impurities in each sample was analyzed.

| SMILES | Content of impurities in the initial sample [%] | 0-8° C., content of impurities in the sample at 7 day [%] |
| --- | --- | --- |
| CC(O)C1NC(=O)C(N)CC(O)C(O)NC(=O)C2C(O)C(C)CN2C(=O)C(C(O)CC(N)=O)NC(=O)C(C(O)C(O)c2ccc(O)c(OS(=O)(=O)O)c2)NC(=O)C2CC(O)CN2C1=O (single isomer, unassigned) [Comparative Example 2] | 1.9 | 3.4 |
| CC(O)C1NC(=O)C(N)CC(O)C(O)NC(=O)C2C(O)C(C)CN2C(=O)C(C(O)CC(N)=O)NC(=O)C(C(O)C(O)c2ccc(O)c(OS(=O)(=O)O)c2)NC(=O)C2CC(O)CN2C1=O (single isomer, unassigned) [Comparative Example 5] | 2.1 | 3.6 |
| CC(O)C1NC(=O)C(N)CC(O)C(O)NC(=O)C2C(O)C(C)CN2C(=O)C(C(O)CC(N)=O)NC(=O)C(C(O)C(O)c2ccc(O)c(OS(=O)(=O)O)c2)NC(=O)C2CC(O)CN2C1=O (single isomer, unassigned) [Comparative Example 7] | 2.4 | 4.7 |
| CC(O)C1NC(=O)C(N)CC(O)C(O)NC(=O)C2C(O)C(C)CN2C(=O)C(C(O)CC(N)=O)NC(=O)C(C(O)C(O)c2ccc(O)c(OS(=O)(=O)O)c2)NC(=O)C2CC(O)CN2C1=O (single isomer, unassigned) [Comparative Example 6] | 2.4 | 4.1 |
| CC(O)C1NC(=O)C(N)CC(O)C(O)NC(=O)C2C(O)C(C)CN2C(=O)C(C(O)CC(N)=O)NC(=O)C(C(O)C(O)c2ccc(O)c(OS(=O)(=O)O)c2)NC(=O)C2CC(O)CN2C1=O (single isomer, unassigned) [Comparative Example 4] | 1.8 | 2.9 |
| C[C@@H](O)[C@@H]1NC(=O)[C@@H](N)C[C@@H](O)[C@@H](O)NC(=O)[C@@H]2[C@@H](O)[C@@H](C)CN2C(=O)[C@H]([C@H](O)CC(N)=O)NC(=O)[C@H]([C@H](O)[C@@H](O)c2ccc(O)c(OS(=O)(=O)O)c2)NC(=O)[C@@H]2C[C@@H](O)CN2C1=O [Example 1] | 2.5 | 4.8 |
| CC(O)C1NC(=O)C(N)CC(O)C(O)NC(=O)C2C(O)C(C)CN2C(=O)C(C(O)CC(N)=O)NC(=O)C(C(O)C(O)c2ccc(O)c(OS(=O)(=O)O)c2)NC(=O)C2CC(O)CN2C1=O (single isomer, unassigned) [Comparative Example 3] | 1.9 | 3.2 |
